Source: patent US20250092043A1, “Kinase Inhibitors and Degraders” (Incyte Corporation, priority 2023, published 2025)

Target: T1, JAK2 (Homo sapiens, UniProt O60674, V617F)
T1 construct: their effect on JAK2 protein degradation in SET2 cells; host or cells: SET2 cells (human essential thrombocythemia)
Test: Western blot quantitation of JAK2 degradation in SET2 cells
Type: cell-based
Conditions: 0.5 μM compound (cells marked **), 8 hours treatment, western blot densitometry vs. DMSO vehicle
Experimental: Example E. Western Blot Analysis of JAK2 Dependent SET2 Cells Treated with Compounds of the Present Disclosure
SET2 cells (DSMZ, catalog number ACC 608) are isolated from a person with human essential thrombocythemia and carry the JAK2 V617F mutation.
SET2 cells were cultured in RPMI culture medium (Gibco, catalog number 11875085) supplemented with 1% penicillin-streptomycin-glutamine (Thermo Fisher Scientific, catalog number 10378016) and 20% fetal bovine serum (Gibco, catalog number 10438034). Cultured cells were maintained at 37° C., 5% CO2 in the incubator.
Approximately 1,000,000 cells/well were added in 6-well plate containing 1.5 ml culture media with specified concentrations of compounds of the present disclosure or DMSO control. Cells were treated with concentrations of 10 uM, 5 uM, 1 uM, and 0.5 uM. Proteasome inhibitor MG-132 (Cell signaling, catalog number 2194) was added at 20 uM to an additional 10 uM compound treatment. The treatment period was 8 hours. After 8 hours, cells were collected in 1.5 mL microcentrifuge tubes. Tubes were centrifuged at 1500 rpm for 5 min. Supernatant was aspirated and samples were washed with 1 mL of cold PBS. The samples were centrifuged again at 1500 rpm for 5 min, supernatant was aspirated. The sample pellets were lysed using 150 μL of 1× lysing buffer (Cell Signaling Technologies—catalog number 9803S) supplemented with 1× Halt™ Protease and Phosphatase Inhibitor Cocktail (Thermo Fisher Scientific—catalog number 78447). Using Pierce™ BCA Protein Assay Kit (Thermo Fisher Scientific—catalog number 23225), protein concentration of the samples were quantitated. After normalizing sample concentration to approximately 20 ug/well, samples were loaded onto 4-12% Tris-glycine gels. Gels were transferred to nitrocellulose membranes using iBlot 2 Dry Blotting System and iBlot™ 2 Transfer Stacks, nitrocellulose (Thermo Fisher Scientific—catalog number IB23001). Following transfer, membranes were blocked with StartingBlock (Thermo Fisher Scientific—catalog number 37543). After 1 hour of blocking membranes, they were probed for JAK2, pSTAT5, STAT5, CRBN, and GAPDH (Cell Signaling—catalog numbers 3230, 4322, 25656, 71810, and 5174 respectively).
Compounds of the present disclosure were screened at various concentrations to determine their effect on JAK2 protein degradation in SET2 cells, using methods as described above. DMSO was used as the vehicle control with no PROTAC® added. Co-administration of 20 μM of the proteasome inhibitor MG-132 with the PROTAC® compound at its highest concentration (i.e., 5 or 10 μM) tested was conducted to support the hypothesis that the degradation was driven by the ubiquitin-proteosome system (UPS). Degradation was evaluated by western blot densitometry quantitation using the FluorChem M instrument software to analyze the intensity of the JAK2 band signal at various concentrations of PROTAC® compound vs. the JAK2 band signal of the DMSO vehicle. It is noted that ˜82% of JAK2 exists as the V617F mutant, with the remaining 18% of JAK2 being WT. Therefore, if the V617F mutant JAK2 is selectively degraded over the WT, the maximum degradation is ˜80%. Degradation was graded as A: […]; B: ≥40% to <60% degradation; C: ≥20% to <40% degradation, D: <20% to ≥10%; E<10%. ** refers to degradation at 0.5 μM.

T1 sequence (O60674 whole entry V617F): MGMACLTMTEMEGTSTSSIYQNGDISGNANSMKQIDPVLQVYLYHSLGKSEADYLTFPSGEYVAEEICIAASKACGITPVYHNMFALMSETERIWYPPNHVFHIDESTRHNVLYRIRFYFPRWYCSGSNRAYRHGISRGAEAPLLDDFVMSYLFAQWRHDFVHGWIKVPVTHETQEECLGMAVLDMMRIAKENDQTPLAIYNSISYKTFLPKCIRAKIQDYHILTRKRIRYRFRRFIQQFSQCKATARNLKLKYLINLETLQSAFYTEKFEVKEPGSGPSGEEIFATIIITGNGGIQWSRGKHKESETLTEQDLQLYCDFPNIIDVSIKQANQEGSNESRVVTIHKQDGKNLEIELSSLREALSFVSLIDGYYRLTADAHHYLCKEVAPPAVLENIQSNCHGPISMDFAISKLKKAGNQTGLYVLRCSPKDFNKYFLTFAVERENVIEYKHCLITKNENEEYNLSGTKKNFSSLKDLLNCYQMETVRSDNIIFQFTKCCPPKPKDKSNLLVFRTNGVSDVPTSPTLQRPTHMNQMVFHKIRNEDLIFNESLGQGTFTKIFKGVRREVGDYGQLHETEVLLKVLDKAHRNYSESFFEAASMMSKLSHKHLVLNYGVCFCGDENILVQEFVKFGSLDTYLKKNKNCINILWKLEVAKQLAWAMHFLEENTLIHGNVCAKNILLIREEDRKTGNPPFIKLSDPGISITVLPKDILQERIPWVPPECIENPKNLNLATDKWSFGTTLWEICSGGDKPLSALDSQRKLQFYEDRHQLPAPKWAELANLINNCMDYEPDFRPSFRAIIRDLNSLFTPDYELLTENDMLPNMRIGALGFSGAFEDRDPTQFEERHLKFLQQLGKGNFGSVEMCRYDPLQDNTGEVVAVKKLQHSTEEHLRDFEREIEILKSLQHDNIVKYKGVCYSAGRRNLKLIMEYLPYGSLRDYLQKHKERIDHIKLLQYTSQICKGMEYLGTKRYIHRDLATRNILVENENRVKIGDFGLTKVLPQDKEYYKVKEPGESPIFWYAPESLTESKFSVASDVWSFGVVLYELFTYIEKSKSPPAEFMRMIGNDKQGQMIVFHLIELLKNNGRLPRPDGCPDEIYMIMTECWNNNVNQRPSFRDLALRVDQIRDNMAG

Row | JAK2 % Degradation in SET2 | Compound
1 | A** (A: ≥600% degradation) | COC(=O)N[C@@H]1CC[C@@H](n2c(=O)n(C)c3cnc4[nH]c(-c5ccc(C(=O)N6CCC(CN7CCN(c8ccc9c(c8)C(=O)N(C8CCC(=O)NC8=O)C9=O)CC7)CC6)cc5)c(-c5ccc6c(cnn6C(C)C)c5)c4c32)C1 (stereo partly drawn) [Example 34, methyl ((1R,3R)-3-(7-(4-(4-((4-(2-(2,6-dioxopiperidin-3-yl)-1,3-dioxoisoindolin-5-yl)piperazin-1-yl)methyl)piperidine-1-carbonyl)phenyl)-8-(1-isopropyl-1H-indazol-5-yl)-3-methyl-2-oxo-3,6-dihydroimidazo[4,5-d]pyrrolo[2,3-b]pyridin-1(2H)-yl)cyclopentyl) carbamate]

Same assay, conditions: 5 μM compound, 8 hours treatment, western blot densitometry vs. DMSO vehicle

Row | JAK2 % Degradation in SET2 | Compound
2 | C (C: ≥20% to <40% degradation) | COC(=O)N[C@@H]1CC[C@@H](n2c(=O)n(C)c3cnc4[nH]c(-c5ccc(C(=O)N6CCC(CN7CCN(c8cccc9c8C(=O)N(C8CCC(=O)NC8=O)C9)CC7)CC6)cc5)c(-c5ccc6c(cnn6C(C)C)c5)c4c32)C1 (stereo partly drawn) [Example 63, Methyl((1R,3R)-3-(7-(4-(4-((4-(2-(2,6-dioxopiperidin-3-yl)-3-oxoisoindolin-4-yl)piperazin-1-yl)methyl)piperidine-1-carbonyl)phenyl)-8-(1-isopropyl-1H-indazol-5-yl)-3-methyl-2-oxo-3,6-dihydroimidazo[4,5-d]pyrrolo[2,3-b]pyridin-1(2H)-yl)cyclopentyl)carbamate]
3 | C (C: ≥20% to <40% degradation) | COC(=O)N[C@@H]1CC[C@@H](n2c(=O)n(C)c3cnc4[nH]c(-c5cnn(CC(=O)N6CCC(CN7CCN(c8cccc9c8C(=O)N(C8CCC(=O)NC8=O)C9=O)CC7)CC6)c5)c(-c5ccc6c(cnn6C(C)C)c5)c4c32)C1 (stereo partly drawn) [Example 40, methyl ((1R,3R)-3-(7-(1-(2-(4-((4-(2-(2,6-dioxopiperidin-3-yl)-1,3-dioxoisoindolin-4-yl)piperazin-1-yl)methyl)piperidin-1-yl)-2-oxoethyl)-1H-pyrazol-4-yl)-8-(1-isopropyl-1H-indazol-5-yl)-3-methyl-2-oxo-3,6-dihydroimidazo[4,5-d]pyrrolo[2,3-b]pyridin-1(2H)-yl)cyclopentyl) carbamate]
4 | E (E<10%) | COC(=O)N[C@@H]1CC[C@@H](n2c(=O)n(C)c3cnc4[nH]c(-c5ccc(C(=O)N6CCN(c7ccc8c(c7)C(=O)N(C7CCC(=O)NC7=O)C8=O)CC6)cc5)c(-c5ccc6c(cnn6C(C)C)c5)c4c32)C1 (stereo partly drawn) [Example 62, Methyl((1R,3R)-3-(7-(4-(4-(2-(2,6-dioxopiperidin-3-yl)-1,3-dioxoisoindolin-5-yl)piperazine-1-carbonyl)phenyl)-8-(1-isopropyl-1H-indazol-5-yl)-3-methyl-2-oxo-3,6-dihydroimidazo[4,5-d]pyrrolo[2,3-b]pyridin-1(2H)-yl)cyclopentyl)carbamate]

Same assay, conditions: 10 μM compound, 8 hours treatment, western blot densitometry vs. DMSO vehicle

Row | JAK2 % Degradation in SET2 | Compound
5 | A (A: ≥600% degradation) | COC(=O)N[C@@H]1CC[C@@H](n2c(=O)n(C)c3cnc4[nH]c(-c5ccc(C(=O)N6CCC(CN7CCN(c8ccc9c(c8)CN(C8CCC(=O)NC8=O)C9=O)CC7)CC6)cc5)c(-c5ccc6c(cnn6C(C)C)c5)c4c32)C1 (stereo partly drawn) [Example 35, methyl ((1R,3R)-3-(7-(4-(4-((4-(2-(2,6-dioxopiperidin-3-yl)-1-oxoisoindolin-5-yl)piperazin-1-yl)methyl)piperidine-1-carbonyl)phenyl)-8-(1-isopropyl-1H-indazol-5-yl)-3-methyl-2-oxo-3,6-dihydroimidazo[4,5-d]pyrrolo[2,3-b]pyridin-1(2H)-yl)cyclopentyl) carbamate]
6 | C (C: ≥20% to <40% degradation) | COC(=O)N[C@@H]1CC[C@@H](n2c(=O)n(C)c3cnc4[nH]c(-c5ccc(C(=O)N6CCC(CC(=O)Nc7ccc8c(c7)CN(C7CCC(=O)NC7=O)C8=O)CC6)c(F)c5)c(-c5ccc6c(cnn6C(C)C)c5)c4c32)C1 (stereo partly drawn) [Example 53, Methyl((1R,3R)-3-(7-(4-(4-(2-((2-(2,6-dioxopiperidin-3-yl)-1-oxoisoindolin-5-yl)amino)-2-oxoethyl)piperidine-1-carbonyl)-3-fluorophenyl)-8-(1-isopropyl-1H-indazol-5-yl)-3-methyl-2-oxo-3,6-dihydroimidazo[4,5-d]pyrrolo[2,3-b]pyridin-1(2H)-yl)cyclopentyl)carbamate]
7 | D (D: <20% to ≥10%) | CN[C@@H](C)C(=O)N[C@H](C(=O)N1C[C@@H](NC(=O)CC2CCN(C(=O)c3ccc(-c4[nH]c5ncc6c(c5c4-c4ccc5c(cnn5C(C)C)c4)n([C@@H]4CC[C@@H](NC(=O)OC)C4)c(=O)n6C)cc3F)CC2)C[C@H]1C(=O)N[C@@H]1CCCc2ccccc21)C1CCCCC1 [Example 46, Methyl((1R,3R)-3-(7-(4-(4-(2-(((3S,5S)-1-((S)-2-cyclohexyl-2-((S)-2-(methylamino)propanamido)acetyl)-5-(((R)-1,2,3,4-tetrahydronaphthalen-1-yl)carbamoyl)pyrrolidin-3-yl)amino)-2-oxoethyl)piperidine-1-carbonyl)-3-fluorophenyl)-8-(1-isopropyl-1H-indazol-5-yl)-3-methyl-2-oxo-3,6-dihydroimidazo[4,5-d]pyrrolo[2,3-b]pyridin-1(2H)-yl)cyclopentyl)carbamate]
8 | C (C: ≥20% to <40% degradation) | COC(=O)N[C@@H]1CC[C@@H](n2c(=O)n(C)c3cnc4[nH]c(-c5ccc(C(=O)N6CCC(CC(=O)Nc7ccc8c(c7)CN(C7CCC(=O)NC7=O)C8=O)CC6)cc5)c(-c5ccc6c(cnn6C(C)C)c5)c4c32)C1 (stereo partly drawn) [Example 61, Methyl((1R,3R)-3-(7-(4-(4-(2-((2-(2,6-dioxopiperidin-3-yl)-1-oxoisoindolin-5-yl)amino)-2-oxoethyl)piperidine-1-carbonyl)phenyl)-8-(1-isopropyl-1H-indazol-5-yl)-3-methyl-2-oxo-3,6-dihydroimidazo[4,5-d]pyrrolo[2,3-b]pyridin-1(2H)-yl)cyclopentyl)carbamate]
9 | E (E<10%) | COC(=O)N[C@@H]1CC[C@@H](n2c(=O)n(C)c3cnc4[nH]c(-c5ccc(C(=O)NCCOCC(=O)Nc6ccc7c(c6)CN(C6CCC(=O)NC6=O)C7=O)c(F)c5)c(-c5ccc6c(cnn6C(C)C)c5)c4c32)C1 (stereo partly drawn) [Example 17, methyl ((1R,3R)-3-(7-(4-((2-(2-((2-(2,6-dioxopiperidin-3-yl)-1-oxoisoindolin-5-yl)amino)-2-oxoethoxy)ethyl)carbamoyl)-3-fluorophenyl)-8-(1-isopropyl-1H-indazol-5-yl)-3-methyl-2-oxo-3,6-dihydroimidazo[4,5-d]pyrrolo[2,3-b]pyridin-1(2H)-yl)cyclopentyl) carbamate]
10 | C (C: ≥20% to <40% degradation) | COC(=O)N[C@@H]1CC[C@@H](n2c(=O)n(C)c3cnc4[nH]c(-c5ccc(C(=O)NC[C@H]6CC[C@H](C(=O)Nc7ccc8c(c7)CN(C7CCC(=O)NC7=O)C8=O)CC6)c(F)c5)c(-c5ccc6c(cnn6C(C)C)c5)c4c32)C1 (stereo partly drawn) [Example 54, Methyl((1R,3R)-3-(7-(4-((((trans-)-4-((2-(2,6-dioxopiperidin-3-yl)-1-oxoisoindolin-5-yl)carbamoyl)cyclohexyl)methyl)carbamoyl)-3-fluorophenyl)-8-(1-isopropyl-1H-indazol-5-yl)-3-methyl-2-oxo-3,6-dihydroimidazo[4,5-d]pyrrolo[2,3-b]pyridin-1(2H)-yl)cyclopentyl)carbamate]
11 | E (E<10%) | COC(=O)N[C@@H]1CC[C@@H](n2c(=O)n(C)c3cnc4[nH]c(-c5ccc(C(=O)N6CCC(C(=O)Nc7ccc8c(c7)CN(C7CCC(=O)NC7=O)C8=O)CC6)c(F)c5)c(-c5ccc6c(cnn6C(C)C)c5)c4c32)C1 (stereo partly drawn) [Example 58, Methyl((1R,3R)-3-(7-(4-(4-((2-(2,6-dioxopiperidin-3-yl)-1-oxoisoindolin-5-yl)carbamoyl)piperidine-1-carbonyl)-3-fluorophenyl)-8-(1-isopropyl-1H-indazol-5-yl)-3-methyl-2-oxo-3,6-dihydroimidazo[4,5-d]pyrrolo[2,3-b]pyridin-1(2H)-yl)cyclopentyl)carbamate]
